Paper PMC7366380, “Discovery of a Potent and Selective Covalent Inhibitor and Activity-Based Probe for the Deubiquitylating Enzyme UCHL1, with Antifibrotic Activity” (Journal of the American Chemical Society, 2020)
Entries after “also recorded” stand apart in the source; their conditions may differ.

How the values were obtained:
[1] = tested on: 20 DUBs; test: Biochemical DUB selectivity profiling (FP and FI assays), whole panel
[2] = target: T1, UCHL1 (Homo sapiens, UniProt P09936); test: UCHL1 covalent adduct site identification (tryptic digest, nanoLC-MS/MS, PEAKS); format: binding; parameters: (residues 1-223, Uniprot P09936); GST (N, cleaved yes); made in house; host or cells: E. coli Rosetta 2(DE3), pGEX-6P-1; details: for site of UCHL1 modification: UCHL1 5 μM, compound 13 μM, 1 h, tryptic digest
T1 sequence (P09936 1-223): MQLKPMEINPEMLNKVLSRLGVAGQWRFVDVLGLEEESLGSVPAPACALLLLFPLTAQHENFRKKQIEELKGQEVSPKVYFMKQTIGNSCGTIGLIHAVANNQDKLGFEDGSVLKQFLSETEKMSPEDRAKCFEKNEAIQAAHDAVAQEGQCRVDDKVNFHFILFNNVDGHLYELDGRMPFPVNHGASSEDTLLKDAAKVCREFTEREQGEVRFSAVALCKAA
Description: b) 2 modification: 96% peptide sequence coverage
Figure S9. Identification of modification sites by nanoLC-MS/MS.
Recombinant UCHL1 (5 µM) was incubated with compound 1 or 2 (13 µM) for 1 h at room temperature. The labeled protein was digested with trypsin and analyzed by nanoLC-MS/MS.
The data was processed in PEAKS 8.0. 82% and 96% of UCHL1 peptide sequence coverage for (a) 1, or (b) 2 modification, respectively. The high confidence modification of compound 1 […]
Statistical data and peptide lists from PEAKS are detailed in Supplementary Data S1. […]
(§1) values were plotted against compound concentration to afford the apparent second order rate constant for inhibition, ka/I. The absolute value of the second order rate constant kobs/I was […]
(§2) Reversible inhibition assay: Jump dilution assays were performed by incubating UCHL1 […]
(§3) negative controls (iodoacetamide (IAA) 10 mM) for 30 min at room temperature. The reaction […]
(§4) intensity read immediately for 1 h.
(§5) UCHL1 covalent adduct determination […]
(§6) pH 7.5) was incubated with compound 1, 2 (2.5 equiv.) or DMSO for 1 h at room temperature.
(§7) The excess ligand was removed by washing with buffer D in an Amicon® Ultra MWCO 10 kDa centrifugation spin filter three times. The protein-adducts were desalted using 3× SDB-XC polystyrene-divinylbenzene copolymer extraction disks, following published methods.5 Samples were eluted with 50% (v/v) MeCN 0.5% (v/v) formic acid in LC-MS grade water and analyzed by LC-ESI (ACQUITY UPLC H-Class PLUS instrument (Waters)) using an ACQUITY UPLC BEH C4 column (Waters) coupled with Waters LCT Premier MS detector.
UCHL1 covalent adduct site identification
Compound-protein adduct samples were prepared as described above and digested with trypsin (Promega, 1:50 trypsin:UCHL1 ratio) at 37 °C, overnight. […]
(§8) The MS data was analyzed by PEAKS Studio 8.5 (Bioinformatics Solutions Inc.). […]
(§9) Homogeneous time resolved fluorescence (HTRF) assay […]
(§10) BME) and incubated for 30 min at room temperature. […] The plates were sealed and incubated overnight at 4 °C then read using a PHERAstar (BMG), and the Delta F calculated: […]

[3] = target: T1, UCHL1; test: UCHL1 covalent adduct determination by LC-ESI-MS; format: binding; parameters: (residues 1-223, Uniprot P09936); GST (N, cleaved yes); made in house; host or cells: E. coli Rosetta 2(DE3), pGEX-6P-1; details: UCHL1 5 μM, compound 13 μM, 60 min
Description: as §1, §2, §3, §4, §5, §6, §7
UCHL1 covalent adduct site identification […]
as §8, §9, §10

[4] = target: T1, UCHL1; test: Reversible inhibition (jump dilution) assay with Ub-AMC; format: biochemical; parameters: rapidly targets endogenous UCHL1 in cells; endogenous in cells; host or cells: HEK293; details: UCHL1 300 nM, compound 400 nM, 30 min, 100x dilution
Description: Figure S2. UCHL1 kinetics
(a) Kinetic analysis of UCHL1 (3 nM)-catalyzed cleavage of varied concentrations of Ub-AMC.
(b) Non-linear fit of Michaelis –Menten equation to initial reaction velocities versus Ub-AMC […]
(c) Apparent rate of inhibition (ka) of compound 1 and 2 at varying concentrations. Ub-AMC (130 nM) fluorescence intensity was measured in the presence of UCHL1 (3 nM). The apparent rate constant for inhibition, ka/I was determined by linear regression, giving the absolute value of the rate constant kobs/I values for […]
13000) M-1s-1, respectively. […]
intensity read immediately for 1 h. […]
as §7, with “detector. […]” for “detector.”
as §8, §9, §10

Row | Compound | activity/selectivity in cross-screening against 20 DUBs [1] | site of UCHL1 modification [2] | covalent modification of UCHL1 by LC-ESI-MS [3] | reversibility of inhibition after dilution [4] | Peptide carrying the compound 2 modification (C, +381.16) ([2]; recombinant UCHL1 (P09936) treated with compound 2, tryptic digest, PEAKS, PTM code n = Compound 2 modification (C))
1 | N#CN1CCC[C@@H]1C(=O)N1CCc2c(-c3c[nH]c4ncccc34)cccc21 [Compound 3] | inactive | – | – | – | –
2 | N#CN1CCC[C@H]1C(=O)N1CCc2c(-c3c[nH]c4ncccc34)cccc21 [Compound 1] | exquisite selectivity | catalytic cysteine 90; also recorded: catalytic cysteine (Cys90) | single modification | slowly reversible | –
3 | C#Cc1cnc2[nH]cc(-c3cccc4c3CCN4C(=O)[C@@H]3CCCN3C#N)c2c1 [Compound 2] | – | catalytic cysteine 90; also recorded: catalytic cysteine (Cys90) | single modification | slowly reversible | QTIGNSC(+381.16)GTIGLIHAVANNQDKLGFEDGSVLK; also recorded: QTIGNSC(+381.16)GTIGLIHAVANNQDK; also recorded: QTIGNSC(+381.16)GTIGLIHAVANNQDKLGFEDGSVLKQFLSETEK
